Entries after “also recorded” stand apart in the source; their conditions may differ.
How the values were obtained:
[1] = target: CFTR (WT-CFTR) Cl− channel (Homo sapiens, UniProt P13569); type: cell-based
[2] = tested on: cAMP-dependent Cl− short-circuit current of mouse colon tissue; settings: 100 μM bumetanide, basolateral side
Description: Mice were 32 to 38 weeks old and weighed 23 to 36 g. Pups were weaned at 21 days and fed solid mouse chow (Teklad 2018S, Harland). All mice were allowed food and water ad libitum until the time of sacrifice by cervical dislocation. Colons were dissected, cut in 4 pieces from rectum to lower intestine. The fragments from colon were introduced immediately into Ussing chambers for subsequent short-circuit experiments.
Transepithelial transport measurements were performed as described previously^33 in the short-circuit mode (6 mice and 17 tissus). […] The excised colon were stripped of external muscle layers and mounted in Ussing chambers (0.018 cm^2 aperture). Hemichambers were connected to a DVC-1000 voltage clamp (World Precision Instruments, Inc., Sarasota, Fla.) via Ag/AgCl electrodes and 3 M KCl agar bridges for recording of short-circuit current. Currents were stored on a computer using analog-to-digital converter (PowerLab) and LabChart software 5.0. Prior to the experiment, prostaglandin generation was blocked with 10 μM indomethacin on the apical and basolateral sides (incubation of tissue for 30 min before the beginning of the experiment). Transepithelial Isc was calculated as μEq cm^−2 tissue surface area. The apical and basolateral solutions contained (in mM): 116 NaCl, 25 NaHCO3, 1.2 CaCl2, 1.2 MgCl2, 2,4 […], 0,4 KH2PO4, 10 glucose and was gassed with 95% O2-5% CO2 (pH 7.4).

ΔF508-CFTR = ΔF508-CFTR (Homo sapiens, UniProt P13569, DEL508-508); type: cell-based; settings: after corrector and CB; inh172 and glibenclamide as a mixture
CFTR channels (WT-CFTR) = CFTR channels (WT-CFTR) (Homo sapiens, UniProt P13569); type: cell-based; settings: 100 μM glibenclamide and 10 μM inh172
Excerpt: HeLa cells stably transfected with WT-CFTR were kindly provided by Pascale Fanen (INSERM U955, Créteil, France). The intracellular side of the membrane patch was exposed to a solution containing (in mM): 150 N-methyl-D-gluconate chloride (NMDG-Cl), 0.5 MgCl2, 2 EGTA, 10 HEPES, 10 glucose, pH 7.4, adjusted to pH 7.4 with NMDG. The patch pipettes were filled with (in mM): 150 NMDG-Cl, 0.5 MgCl2, 2 EGTA, 10 HEPES, 10 glucose, 1 ATP-Mg adjusted to pH 7.4 with NMDG. CFTR channels were activated by addition of 40 nM PKA+1 mM ATP-Mg at the intracellular side of the patches. The presence of CFTR channels was verified by addition of 100 μM glibenclamide and 10 μM inh172. The effect of CB was tested by perfusion of 1 nM of CB in the intracellular solution in the presence of 40 nM PKA+0.05, 0.5, or 1 mM ATP-Mg. The currents were recorded as previously described^34. […] Currents were recorded with Bio-logic RK 400 patch-clamp amplifiers (Bio-Logic, Claix, France), monitored using PClamp9 software (Axon Instruments, Foster City, Calif., USA) and stored on a computer. […] We calculated channel activity (NPo) as <I>/i, where <I> is the time-averaged current passing through the channels on the patch with the closed current level as reference and i is the unit current amplitude.

ΔF508-NBD1 of CFTR = ΔF508-NBD1 of CFTR (Homo sapiens, UniProt P13569, DEL508-508); type: binding
[3] = target: human ΔF508-NBD1 (NBD1 domain of CFTR with deletion of Phe508) (human, UniProt P13569 389-678)
[4] = target: recombinant, purified human NBD1 (nucleotide binding domain 1) of CFTR, wild type (human, UniProt P13569 389-678)
Sequence of recombinant, purified human NBD1 (nucleotide binding domain 1) of CFTR, wild type (P13569 389-678 limits assumed): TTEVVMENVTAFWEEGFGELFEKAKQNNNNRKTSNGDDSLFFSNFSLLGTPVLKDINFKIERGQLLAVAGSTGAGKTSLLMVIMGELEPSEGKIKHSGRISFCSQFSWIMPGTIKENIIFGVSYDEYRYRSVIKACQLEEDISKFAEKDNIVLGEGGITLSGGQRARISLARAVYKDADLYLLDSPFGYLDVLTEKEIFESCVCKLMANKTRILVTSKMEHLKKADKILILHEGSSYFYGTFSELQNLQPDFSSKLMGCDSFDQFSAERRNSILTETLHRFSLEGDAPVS

Sequence of human ΔF508-NBD1 (NBD1 domain of CFTR with deletion of Phe508) (P13569 other isoform, or with tags, fused parts or gaps mutant limits assumed): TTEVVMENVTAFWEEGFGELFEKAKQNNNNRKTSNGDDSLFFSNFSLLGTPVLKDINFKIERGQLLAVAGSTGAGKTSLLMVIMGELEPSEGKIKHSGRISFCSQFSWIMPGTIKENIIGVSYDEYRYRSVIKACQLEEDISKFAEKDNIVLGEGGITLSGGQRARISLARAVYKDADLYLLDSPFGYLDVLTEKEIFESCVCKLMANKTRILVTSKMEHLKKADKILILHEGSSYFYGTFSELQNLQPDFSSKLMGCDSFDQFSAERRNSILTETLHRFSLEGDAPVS
Sequence of ΔF508-NBD1 of CFTR (P13569 with tags, fused parts or gaps DEL508-508 limits assumed): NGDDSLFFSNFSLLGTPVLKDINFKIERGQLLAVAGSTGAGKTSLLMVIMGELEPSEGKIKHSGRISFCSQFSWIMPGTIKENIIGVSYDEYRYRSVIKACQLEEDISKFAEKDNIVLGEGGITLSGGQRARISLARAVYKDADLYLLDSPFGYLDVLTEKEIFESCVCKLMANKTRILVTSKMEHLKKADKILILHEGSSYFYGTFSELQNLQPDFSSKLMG
Sequence of ΔF508-CFTR (P13569 with tags, fused parts or gaps DEL508-508): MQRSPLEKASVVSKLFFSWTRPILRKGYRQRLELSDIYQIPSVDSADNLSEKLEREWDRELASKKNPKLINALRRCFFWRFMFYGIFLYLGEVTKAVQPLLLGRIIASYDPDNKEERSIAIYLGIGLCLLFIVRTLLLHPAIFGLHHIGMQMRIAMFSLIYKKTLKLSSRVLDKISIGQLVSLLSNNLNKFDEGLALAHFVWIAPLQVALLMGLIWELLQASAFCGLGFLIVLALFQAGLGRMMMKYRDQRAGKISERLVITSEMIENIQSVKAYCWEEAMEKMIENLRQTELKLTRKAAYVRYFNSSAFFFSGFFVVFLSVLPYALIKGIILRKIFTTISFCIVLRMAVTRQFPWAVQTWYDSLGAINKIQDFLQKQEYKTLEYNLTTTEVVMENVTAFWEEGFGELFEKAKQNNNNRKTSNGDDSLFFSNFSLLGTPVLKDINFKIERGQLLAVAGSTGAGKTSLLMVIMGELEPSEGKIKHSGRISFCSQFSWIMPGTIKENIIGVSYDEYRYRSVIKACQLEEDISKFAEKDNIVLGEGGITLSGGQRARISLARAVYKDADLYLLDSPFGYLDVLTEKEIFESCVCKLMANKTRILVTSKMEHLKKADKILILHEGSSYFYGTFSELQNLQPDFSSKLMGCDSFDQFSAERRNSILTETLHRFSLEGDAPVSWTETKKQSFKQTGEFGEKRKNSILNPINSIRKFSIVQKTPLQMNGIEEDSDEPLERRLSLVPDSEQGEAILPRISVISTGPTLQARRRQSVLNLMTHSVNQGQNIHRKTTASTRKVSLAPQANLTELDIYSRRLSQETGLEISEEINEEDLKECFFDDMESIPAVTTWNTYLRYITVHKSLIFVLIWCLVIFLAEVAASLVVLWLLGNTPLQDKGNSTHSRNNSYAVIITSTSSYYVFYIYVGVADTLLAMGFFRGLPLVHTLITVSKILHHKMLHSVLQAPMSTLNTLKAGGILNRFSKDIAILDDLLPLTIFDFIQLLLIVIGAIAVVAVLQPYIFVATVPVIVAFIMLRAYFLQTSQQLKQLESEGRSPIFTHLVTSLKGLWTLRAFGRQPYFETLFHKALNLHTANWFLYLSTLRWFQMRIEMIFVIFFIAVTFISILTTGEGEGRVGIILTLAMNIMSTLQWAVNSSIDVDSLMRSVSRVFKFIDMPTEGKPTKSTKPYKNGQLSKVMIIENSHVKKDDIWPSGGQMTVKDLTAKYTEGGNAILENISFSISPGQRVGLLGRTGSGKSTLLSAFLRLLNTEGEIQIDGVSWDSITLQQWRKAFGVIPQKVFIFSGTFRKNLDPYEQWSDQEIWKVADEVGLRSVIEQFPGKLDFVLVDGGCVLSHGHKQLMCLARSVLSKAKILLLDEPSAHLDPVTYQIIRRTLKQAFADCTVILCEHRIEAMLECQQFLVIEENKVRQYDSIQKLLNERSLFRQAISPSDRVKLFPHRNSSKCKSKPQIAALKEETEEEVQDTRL
Sequence of CFTR (WT-CFTR) Cl− channel (P13569 whole entry): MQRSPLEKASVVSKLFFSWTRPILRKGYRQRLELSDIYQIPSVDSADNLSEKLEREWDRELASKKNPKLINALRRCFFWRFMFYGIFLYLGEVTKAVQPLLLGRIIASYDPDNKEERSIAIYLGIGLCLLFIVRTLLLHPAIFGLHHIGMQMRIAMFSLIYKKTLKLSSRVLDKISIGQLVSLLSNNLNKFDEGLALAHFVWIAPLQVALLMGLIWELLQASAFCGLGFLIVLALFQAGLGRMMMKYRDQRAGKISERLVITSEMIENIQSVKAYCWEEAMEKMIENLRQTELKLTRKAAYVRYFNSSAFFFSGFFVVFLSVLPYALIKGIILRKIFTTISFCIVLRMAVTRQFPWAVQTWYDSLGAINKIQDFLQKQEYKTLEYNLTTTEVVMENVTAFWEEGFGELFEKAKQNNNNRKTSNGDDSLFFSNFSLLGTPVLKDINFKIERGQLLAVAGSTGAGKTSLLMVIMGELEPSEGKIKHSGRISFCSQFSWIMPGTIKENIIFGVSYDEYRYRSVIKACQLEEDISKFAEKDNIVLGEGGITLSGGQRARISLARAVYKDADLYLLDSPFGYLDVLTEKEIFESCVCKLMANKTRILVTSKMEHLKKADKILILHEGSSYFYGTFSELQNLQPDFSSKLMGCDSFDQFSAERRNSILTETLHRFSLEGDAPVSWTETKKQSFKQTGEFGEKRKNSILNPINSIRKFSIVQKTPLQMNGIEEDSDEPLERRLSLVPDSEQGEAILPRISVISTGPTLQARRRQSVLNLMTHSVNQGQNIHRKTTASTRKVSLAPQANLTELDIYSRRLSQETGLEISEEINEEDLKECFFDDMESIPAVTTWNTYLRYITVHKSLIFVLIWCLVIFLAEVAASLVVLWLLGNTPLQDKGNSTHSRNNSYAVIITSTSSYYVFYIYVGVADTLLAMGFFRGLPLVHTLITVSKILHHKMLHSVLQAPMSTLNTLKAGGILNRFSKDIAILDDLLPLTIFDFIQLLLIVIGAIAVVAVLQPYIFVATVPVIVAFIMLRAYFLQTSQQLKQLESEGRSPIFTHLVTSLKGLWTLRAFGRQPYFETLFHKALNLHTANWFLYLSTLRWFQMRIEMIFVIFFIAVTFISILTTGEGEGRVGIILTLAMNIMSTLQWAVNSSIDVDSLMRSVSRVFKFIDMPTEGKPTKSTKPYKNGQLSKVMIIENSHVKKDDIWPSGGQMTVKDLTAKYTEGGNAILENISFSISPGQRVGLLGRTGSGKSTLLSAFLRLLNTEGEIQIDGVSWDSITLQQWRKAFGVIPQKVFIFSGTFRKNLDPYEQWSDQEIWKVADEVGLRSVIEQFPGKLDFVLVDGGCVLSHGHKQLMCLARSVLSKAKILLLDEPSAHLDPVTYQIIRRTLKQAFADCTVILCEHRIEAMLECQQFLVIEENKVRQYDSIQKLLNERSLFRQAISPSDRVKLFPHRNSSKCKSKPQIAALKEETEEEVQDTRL
Sequence of CFTR channels (WT-CFTR) (P13569 whole entry, the tested form may be a part): as the sequence (P13569 whole entry) above

Question: How did the “effect on IcAMP (CFTR-Cl− current)” value [1] turn out when `CCCCC/C=C\C/C=C\C/C=C\C/C=C\CCCC(=O)O` [arachidonic acid] was run?
Answer: no effect on IcAMP

Question: `CCCCNc1cc(C(=O)O)cc(S(N)(=O)=O)c1Oc1ccccc1` [bumetanide] was tested. Which “inhibition of the CB-induced Isc increase” value [2] did it give?
Answer: inhibited

Question: What does the source list for `COc1ccc(Cl)cc1C(=O)NCCc1ccc(S(=O)(=O)NC(=O)NC2CCCCC2)cc1` [glibenclamide]?
Answer: inhibition of the CB-potentiated current (ΔF508-CFTR): only slightly; inhibition of the activated channels (CFTR channels (WT-CFTR)): inhibited

Question: For NAVPFYAFYGCYCGWGGQ, which “Cl− channel current” value (Cl— channel current) is on record?
Answer: increased; also recorded: increases Cl— channel current

Question: What about the “binding of peptide to mutated NBD1” value (ΔF508-NBD1 of CFTR) of the same molecule?
Answer: has shown interaction; also recorded: interacts with ΔF508-NBD1

Question: Which “inhibition of the CB-potentiated current” value (ΔF508-CFTR) does the source give for glyH101 here?
Answer: inhibited

B1: recombinant human non-pancreatic secreted phospholipase A2 group IIA (enzyme, UniProt P14555 21-144, looked up)
chain: NLVNFHRMIKLTTGKEAALSYGFYGCHCGVGGRGSPKDATDRCCVTHDCCYKRLEKRGCGTKFLSYKFSNSGSRITCAKQDSCRSQLCECDKAAATCFARNKTTYNKKYQYYSNKHCRGSTPRC
Question: Which Kd [3] does the source give for B1 here?
Answer: 37 nM

Question: What about the koff [3] of the same molecule?
Answer: 0.0066 s⁻¹

Question: What about the kon [3] of the same molecule?
Answer: 180000 M⁻¹ s⁻¹

Question: What about the Kd [4] of the same molecule?
Answer: 35 nM

Question: And the koff [4]?
Answer: 0.0021 s⁻¹

Question: And the kon [4]?
Answer: 59000 M⁻¹ s⁻¹

Reference: patent US20190391160A1 (INSTITUT PASTEUR, published 2019)
